This passage reports TGI results from PubChem BioAssay (NCI).

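Test compounds were applied to cells in 96-well plates for 48 hours at 5 doses. TGI is the concentration that stops growth completely.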

Among the test systems are HCC-2998 colon; HCT-15 colon; HL-60(TB) leukemia; HOP-92 NSCLC; LOX IMVI melanoma; MDA-MB-231 breast; MDA-MB-435; NCI/ADR-RES ovarian; OVCAR-3 ovarian; OVCAR-8 ovarian; RPMI-8226 leukemia; RXF 393 renal; SF-295 CNS; SK-MEL-2 melanoma; SK-MEL-28 melanoma; SW-620 colon; T-47D breast; TK-10 renal; HT29 colon; SK-OV-3 ovarian.
What all share (test): growth of human tumour cells (NCI), 48 h

Regarding `Cc1cc(C)c(O)c(CN2CCN(C(C)C)CCN(C(C)C)CC2)c1`, the TGI was 40.8 µM in the assay on HCC-2998 colon; over 100 µM with HCT-15 colon; 71 µM in the assay on HL-60(TB) leukemia; 65.2 µM in the assay on HOP-92 NSCLC; 42.6 µM with LOX IMVI melanoma; over 100 µM in the assay with MDA-MB-231 breast. The TGI is 64.4 µM with MDA-MB-435; over 100 µM with NCI/ADR-RES ovarian; over 100 µM with OVCAR-3 ovarian; 94.9 µM in the assay on OVCAR-8 ovarian; over 100 µM in the assay on RPMI-8226 leukemia; 45 µM in the assay on RXF 393 renal. Further, the TGI with SF-295 CNS was 85.3 µM; with SK-MEL-2 melanoma, over 100 µM; with SK-MEL-28 melanoma, 72.8 µM; in the assay on SW-620 colon it was over 100 µM; in the assay on T-47D breast, 61 µM; with TK-10 renal, over 100 µM.
Consider `CCC1CCN=C(NS(=O)(=O)c2cc(C)c(Cl)cc2S)N1` (stereo not drawn), for which the TGI with HCC-2998 colon is over 100 µM; with HCT-15 colon, over 100 µM; in the assay on HL-60(TB) leukemia, 82.5 µM; in the assay with HOP-92 NSCLC, over 100 µM; with HT29 colon it was 88.9 µM; in the assay with LOX IMVI melanoma, 53.2 µM. For the same compound, the TGI is over 100 µM in the assay with MDA-MB-231 breast; 64.2 µM in the assay with MDA-MB-435; over 100 µM in the assay with NCI/ADR-RES ovarian; 44.6 µM in the assay with OVCAR-8 ovarian; 81.5 µM with RPMI-8226 leukemia; over 100 µM in the assay with RXF 393 renal. Moreover, the TGI in the assay on SK-MEL-2 melanoma is over 100 µM; in the assay with SK-MEL-28 melanoma, over 100 µM; with SK-OV-3 ovarian, over 100 µM; with SW-620 colon, 90.3 µM; in the assay with T-47D breast it was 98.5 µM; in the assay on TK-10 renal, over 100 µM.
In the case of `COc1cc2oc(-c3ccc4c(c3)OCO4)c(OC)c(=O)c2c(OC)c1O`, the TGI is over 100 µM in the assay with HCC-2998 colon; over 100 µM in the assay with HCT-15 colon; 84 µM in the assay on HL-60(TB) leukemia; 89.4 µM in the assay with HOP-92 NSCLC; over 100 µM in the assay on HT29 colon; over 100 µM in the assay on LOX IMVI melanoma. Besides, the TGI in the assay with MDA-MB-231 breast, with MDA-MB-435, in the assay with NCI/ADR-RES ovarian, in the assay on OVCAR-3 ovarian, with OVCAR-8 ovarian and in the assay with RXF 393 renal was over 100 µM throughout. For the same compound, the TGI with SF-295 CNS, in the assay on SK-MEL-28 melanoma, in the assay on SK-OV-3 ovarian, with SW-620 colon, in the assay on T-47D breast and in the assay with TK-10 renal was over 100 µM in each case.
Regarding `COC(=O)C(C)(C)[C@@H]1OC(=O)N(S(=O)(=O)c2c(C)cc(C)cc2C)[C@H]1C(C)C`, the TGI was over 100 µM with HCC-2998 colon; over 100 µM in the assay with HCT-15 colon; 84.5 µM with HL-60(TB) leukemia; 98.2 µM in the assay with HOP-92 NSCLC; over 100 µM in the assay on HT29 colon; over 100 µM in the assay on LOX IMVI melanoma. The TGI in the assay on MDA-MB-231 breast, with MDA-MB-435, in the assay on NCI/ADR-RES ovarian, with OVCAR-3 ovarian, in the assay with OVCAR-8 ovarian and in the assay with RPMI-8226 leukemia was over 100 µM each time. Also, the TGI with RXF 393 renal, in the assay with SF-295 CNS, with SK-MEL-2 melanoma, with SK-MEL-28 melanoma, in the assay with SK-OV-3 ovarian and with SW-620 colon was over 100 µM throughout. Further, the TGI in the assay on T-47D breast and in the assay on TK-10 renal was over 100 µM each time.
On to `COC(=O)c1ccccc1CC(Cc1ccc2c(c1)CCC2)C(=O)OC` (stereo not drawn), for which the TGI in the assay on HCC-2998 colon, in the assay with HCT-15 colon, in the assay on HL-60(TB) leukemia, with HOP-92 NSCLC, in the assay on HT29 colon and in the assay on LOX IMVI melanoma was over 100 µM throughout. In addition, the TGI with MDA-MB-231 breast, with MDA-MB-435, in the assay with NCI/ADR-RES ovarian, in the assay with OVCAR-3 ovarian, in the assay with OVCAR-8 ovarian and in the assay with RPMI-8226 leukemia was over 100 µM throughout. Moreover, the TGI with RXF 393 renal, with SF-295 CNS, in the assay on SK-MEL-2 melanoma, with SK-MEL-28 melanoma, with SK-OV-3 ovarian and with SW-620 colon was over 100 µM throughout. Further, the TGI with T-47D breast and with TK-10 renal was over 100 µM in each case.
On to `Cc1ccc(-c2n[nH]c(=O)n2NC(=O)c2ccccc2C(=O)O)cc1`, for which the TGI with HCC-2998 colon, with HCT-15 colon, with HL-60(TB) leukemia, in the assay with HOP-92 NSCLC, in the assay on HT29 colon and with LOX IMVI melanoma was over 100 µM in each case. In addition, the TGI in the assay on MDA-MB-231 breast, in the assay on MDA-MB-435, in the assay with NCI/ADR-RES ovarian, in the assay on OVCAR-3 ovarian, in the assay with OVCAR-8 ovarian and with RPMI-8226 leukemia was over 100 µM in each case. The TGI in the assay on RXF 393 renal, with SF-295 CNS, with SK-MEL-2 melanoma, in the assay on SK-MEL-28 melanoma, in the assay with SW-620 colon and in the assay with T-47D breast was over 100 µM each time. This compound also returned a TGI with TK-10 renal of over 100 µM.
Consider `COC(=O)C1=C(OC(=O)/C(=C/c2ccccc2)c2ccc(Cl)cc2)C(C(=O)OC)[C@@]2(O)[C@@H](C(=O)OC)[C@H](C)C[C@@H]1[C@@H]2C(=O)OC` (stereo partly drawn), for which the TGI with HCC-2998 colon, with HCT-15 colon, with HL-60(TB) leukemia, in the assay with HOP-92 NSCLC, in the assay on HT29 colon and in the assay on LOX IMVI melanoma was over 100 µM each time. Also, the TGI in the assay with MDA-MB-231 breast, in the assay on MDA-MB-435, in the assay with NCI/ADR-RES ovarian, in the assay on OVCAR-3 ovarian, with OVCAR-8 ovarian and in the assay on RPMI-8226 leukemia was over 100 µM throughout. The TGI in the assay with RXF 393 renal, in the assay on SF-295 CNS, with SK-MEL-2 melanoma, in the assay on SK-MEL-28 melanoma, in the assay on SK-OV-3 ovarian and in the assay with SW-620 colon was over 100 µM throughout. Further, the TGI in the assay with T-47D breast and with TK-10 renal was over 100 µM throughout.
